According to paper PMC11887051, “Discovery of ONO-2920632 (VU6011887): A Highly Selective and CNS Penetrant TREK-2 (TWIK-Related K+ Channel 2) Preferring Activator In Vivo Tool Compound” (ACS Chemical Neuroscience, 2025):

Tests used:
[1] = rat predicted hepatic clearance (hepatic microsomes); type: in vitro ADME
Protocol: Intrinsic clearance: Human or rat hepatic microsomes (0.5 mg/mL) and 1 µM test compound were incubated in 100 mM potassium phosphate pH 7.4 buffer with 3 mM MgCl2 at 37 °C with constant shaking. After a 5 min preincubation, the reaction was initiated by the addition of NADPH (1 mM). At selected time intervals (0, 3, 7, 15, 25, and 45 min), aliquots were taken and subsequently placed into a 96-well plate containing cold acetonitrile with internal standard (50 ng/mL carbamazepine). Plates were then centrifuged at 3000 rcf (4 °C) for 10 min, and the supernatant was transferred to a separate 96-well plate and diluted 1:1 with water for LC/MS/MS analysis. The in vitro half-life ( 1/2, min, Eq. 1), intrinsic clearance (CLint, mL/min/kg, Eq. 2), and subsequent predicted hepatic clearance (CLhep, mL/min/kg, Eq. 3) was determined employing the […]
where k represents the slope from linear regression analysis of the natural log percent remaining of a test compound as a function of incubation time […]
(2) CLint = in vitroT1/2 x mg microsomes x gram liver x kg body wt ascale-up factors: of 20 (human) or 45 (rat) […]
where Qh (hepatic blood flow, mL/min/kg) is 21 (human) or 70 (rat).
LC/MS/MS Bioanalysis of Samples from Plasma Protein Binding and Intrinsic Clearance […]
Samples were analyzed on a Thermo Electron TSQ Quantum Ultra triple quad mass spectrometer (San Jose, CA) via electrospray ionization (ESI) with two Themo Electron Accella pumps (San Jose, CA), and a Leap Technologies CTC PAL autosampler (Carrboro, NC). Analytes were separated by gradient elution on a dual column system with two Thermo Hypersil Gold (2.1 x 30 mm, 1.9 µm) columns (San Jose, CA) thermostated at 40 °C. HPLC mobile phase A was 0.1% formic acid in water and mobile phase B was 0.1% formic acid in acetonitrile. The gradient started […]
for 0.2 min; returned to 10% B in 0.1 min. The total run time was 1.3 min and the HPLC flow rate was 0.8 mL/min. While pump 1 ran the gradient method, pump 2 equilibrated the alternate column isocratically at 10% B. Compound optimization, data collection, and processing was performed using Thermo Electron's QuickQuan software (v2.3) and Xcalibur (v2.0.7 SP1).

TREK-2 = biological target: T1, TREK-2 (Homo sapiens, UniProt P57789); test: TREK-2 thallium flux assay (hTREK-2/HEK); type: cell-based; parameters: expressed in transfected cells; host or cells: HEK293; conditions: for Emax: % activation relative to 10 µM BL-1249; for Fold TREK-2: TREK-2 preference over TREK-1, thallium flux
T1 sequence (P57789 1-538): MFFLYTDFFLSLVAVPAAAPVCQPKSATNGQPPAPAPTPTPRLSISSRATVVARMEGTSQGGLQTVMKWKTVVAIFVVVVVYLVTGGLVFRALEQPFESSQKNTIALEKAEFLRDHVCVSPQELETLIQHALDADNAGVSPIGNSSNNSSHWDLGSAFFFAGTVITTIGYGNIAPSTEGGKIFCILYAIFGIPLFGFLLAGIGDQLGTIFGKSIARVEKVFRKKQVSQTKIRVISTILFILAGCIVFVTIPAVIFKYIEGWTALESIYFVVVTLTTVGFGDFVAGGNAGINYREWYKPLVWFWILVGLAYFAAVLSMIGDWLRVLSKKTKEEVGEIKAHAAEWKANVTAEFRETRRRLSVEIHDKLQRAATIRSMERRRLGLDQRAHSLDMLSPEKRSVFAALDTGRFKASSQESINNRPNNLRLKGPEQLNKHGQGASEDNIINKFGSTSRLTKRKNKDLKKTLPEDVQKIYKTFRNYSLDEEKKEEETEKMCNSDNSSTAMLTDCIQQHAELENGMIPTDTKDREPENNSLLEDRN
Protocol: Procedures for Biological Experiments
TREK-1 and TREK-2 thallium flux assay protocol […]
HEK293 cells stably expressing human TREK-2 (hTREK-2/HEK) were constructed at Ono. hTREK-1/CHO or hTREK-2/HEK were plated in 384-well plates at a density of 1.0x10^4 cells/well or 2.0x10^4 cells/well, respectively, and cultured overnight. After the wash by HBSS + 20 mM HEPES buffer, cells were loaded with Thallos dye for 1 hour at room temperature. After the wash […]
dissolved with HBSS + 20mM HEPES buffer were added to each well. After 10 minutes incubation at room temperature, thallium stimulus buffer were added to each well and the fluorescent intensity are measured by Panoptic. The final thallium concentration was 0.36 mM in […]
TREK-1 or 0.24 mM in TREK-2, respectively. […]

[2] = mouse plasma protein binding; type: in vitro ADME; conditions: pH 7.4, read-out: mouse plasma fu
Protocol: In vitro Plasma protein binding and Brain homogenate binding: Determination of fraction unbound (f u) in plasma was conducted in vitro via equilibrium dialysis using HTDialysis (HTD) membrane plates. The top half of the plate was filled with 100 uL of Dubelco’s Phosphate Buffered Saline, pH 7.4 (DPBS). Compounds were diluted into plasma from each species (5 µM final concentration), which was aliquoted in triplicate to the ‘bottom half’ of the prepared HTD plate wells. The HTD plate was sealed and incubated for 6 hours at 37 °C. Following incubation, each well (both top and bottom halves) were transferred (20 µL) to the corresponding wells of a 96-shallow-well (V-bottom) plate. The daughter plates were then matrix-matched (DPBS side wells received equal volume of plasma, and plasma side wells received equal volume of DPBS), and extraction solution (120 µL; acetonitrile containing 50 nM carbamazepine as IS) was added to all wells of both daughter plates to precipitate protein and extract test article. The plates were then sealed and centrifuged (3500 rcf) for 10 minutes at ambient temperature. Supernatant (60 µL) from each well of the daughter plates was then transferred to the corresponding wells of new daughter plates (96-shallow-well, V bottom) containing water (Milli-Q, 60 µL/well), and the plates were sealed in preparation for LC-MS/MS analysis (see LC-MS/MS analysis method below).
The unbound fraction (f u) was calculated following the equation below, and mean values for each species were calculated from 3 replicates. […]
Fraction unbound for both plasma and brain samples was determined using Equation 4.
Equation 4 Determination of fraction unbound in plasma. […]

rat CLhep (predicted hepatic clearance) [1] [mL/min/kg]	EC50 (TREK-2) [nM]	Emax (TREK-2) [%]	Fold TREK-2 (TREK-2) [fold]	fraction unbound at 6 h, 5 µM [2]	Structure (SMILES)
17.4	3200	155	~3		CS(=O)(=O)Nc1ccc(C(=O)NCc2ccc(Cl)cc2Cl)cc1 [Compound 13]
	730	183		0.022	O=C(NCc1ccc(Br)cc1Cl)c1ccc(-c2ncn[nH]2)cc1 [Compound 14a]
5.7	150	160	25.3	0.1	Cc1cc(OC(F)(F)F)ccc1CNC(=O)c1ccc2ncnn2c1 [Compound 19a]

Structure (SMILES)	rat CLhep (predicted hepatic clearance) [1] [mL/min/kg]	EC50 (TREK-2) [nM]	Emax (TREK-2) [%]	Fold TREK-2 (TREK-2) [fold]	fraction unbound at 6 h, 5 µM [2]
O=C(NCc1ccc(OC(F)(F)F)cc1F)c1ccc2ncnn2c1 [Compound 19b]	2.9	300	184	9.3	0.24
